Laboratory results taken from patent publication US11753445B2, “Therapeutic peptides” (COHBAR, INC., priority 2016, dated 2023).
Where “and” joins values, the source holds several entries; their conditions need not be identical. Equal entries are not always repeated.

Tests used:
Human Primary Adipocytes [1] = assay: Free fatty acid levels in cultured human primary adipocytes, isoproterenol stimulated (Example 4); format: cell-based; details: test peptides 25 μM; isoproterenol 1 nM
Experimental: Human primary adipocytes were seeded at 5,000-100,000 cells per well on 96-well, 48-well, or 24-well plates in Pre-adipocyte Medium (Zen-Bio, Durham, N.C.) and grown to confluence at 37° C. in a humidified atmosphere of 5% CO2/95% air. Two days after confluence, cells were placed in Adipocyte Differentiation Medium (Zen-Bio, Durham, N.C.) and cultured for three additional days at 37° C. in a humidified atmosphere of 5% CO2/95% air. The culture media was then replaced with Adipocyte Maintenance Medium (Zen-Bio) and the cells were maintained for an additional 11-21 days at 37° C. in a humidified atmosphere of 5% CO2/95% air with partial medium replacement every other day. Following 14-24 days of differentiation, test peptides were added at a final concentration of 25 μM and incubated for 18-20 hours in Adipocyte Maintenance Medium at 37° C. in a humidified atmosphere of 5% CO2/95%. After 18-20 hours, the media was exchanged with fresh Adipocyte Maintenance Medium containing test peptides and incubated for 1 h at 37° C. in a humidified atmosphere of 5% CO2/95%. After 1 h media was exchanged with Assay Buffer (Zen-Bio) containing isoproterenol (1 nM) (added to all samples except untreated controls) and test peptides. Cells were incubated for a further 3 hours at 37° C. in a humidified atmosphere of 5% CO2/95%. Free fatty acid concentrations in the media were determined using a Free Fatty Acid Assay Kit (Zen-Bio) according to the manufacturer's instructions using a plate reader (540 nm). Absorbance values were corrected for untreated background and expressed relative to isoproterenol treated cells. Treatment with isoproterenol (1 nM) alone was used as the free fatty acid level stimulatory control. The relative standard deviation of the isoproterenol control was <14%. […] Free fatty acid levels for insulin (100 nM) treatment were <5% of the isoproterenol control value.

Human Primary Adipocytes [2] = assay: Free fatty acid levels in cultured human primary adipocytes, forskolin stimulated (Example 5); format: cell-based; details: test peptides 25 μM; forskolin 1 μM
Experimental: Human primary adipocytes were seeded at 5,000-100,000 cells per well on 96-well, 48-well, or 24-well plate in Pre-adipocyte Medium (Zen-Bio, Durham, N.C.) and grown to confluence at 37° C. in a humidified atmosphere of 5% CO2/95% air. Two days after confluence, cells were placed in Adipocyte Differentiation Medium (Zen-Bio, Durham, N.C.) and cultured for three additional days at 37° C. in a humidified atmosphere of 5% CO2/95% air. The culture media was then replaced with Adipocyte Maintenance Medium (Zen-Bio) and the cells were maintained for an additional 11-21 days at 37° C. in a humidified atmosphere of 5% CO2/95% air with partial medium replacement every other day. Following 14-24 days of differentiation, test peptides were added at a final concentration of 25 μM and incubated for 18-20 hours in Adipocyte Maintenance Medium at 37° C. in a humidified atmosphere of 5% CO2/95%. After 18-20 hours, the media was exchanged with fresh Adipocyte Maintenance Medium containing test peptides and incubated for 1 h at 37° C. in a humidified atmosphere of 5% CO2/95%. After 1 h media was exchanged with Assay Buffer (Zen-Bio) containing forskolin (1 μM) (added to all samples except untreated controls) and test peptides. Cells were incubated for a further 3 hours at 37° C. in a humidified atmosphere of 5% CO2/95%. Free fatty acid concentrations in the media were determined using a Free Fatty Acid Assay Kit (Zen-Bio) according to the manufacturer's instructions using a plate reader (540 nm). Absorbance values were corrected for untreated background and expressed relative to forskolin treated cells. Treatment with forskolin (1 μM) alone was used as the free fatty acid level stimulatory control. The relative standard deviation of the forskolin control was <20%. […] Free fatty acid levels for insulin (100 nM) treatment were <8% of the forskolin control value.

[3] = Stability in mouse plasma, peptides 100 uM (Example 14); format: in vitro ADME; details: mouse plasma 37° C., peptide 100 uM; for remaining at 0.25 h, 100 uM / remaining at 0.5 h, 100 uM / remaining at 1 h, 100 uM / remaining at 2 h, 100 uM / remaining at 3 h, 100 uM: pooled mouse plasma; for remaining at 0.25 h, 100 uM: 15 min, read-out: % Remaining at Each Time Point: 15 min; for remaining at 0.5 h, 100 uM: 30 min, read-out: % Remaining at Each Time Point: 30 min; for remaining at 1 h, 100 uM: 60 min, read-out: % Remaining at Each Time Point: 60 min; for remaining at 2 h, 100 uM: 120 min, read-out: % Remaining at Each Time Point: 120 min; for remaining at 3 h, 100 uM: 180 min, read-out: % Remaining at Each Time Point: 180 min
Experimental: (§1) Peptides (100 uM) were incubated in pooled mouse plasma at 37° C. and samples were removed and immediately analyzed for the concentration of intact peptide by LC/MS/MS over the course of 3 hours. The percent of peptide remaining in plasma at each time point was calculated relative to the initial peak area (Table 12).

3T3-L1 Adipocytes [4] = assay: Free fatty acid levels in cultured mouse 3T3-L1 adipocytes, isoproterenol stimulated (Example 2); format: cell-based; details: test peptides 25 μM; isoproterenol 1 nM
Procedure, shortened: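 3T3-L1 cells differentiated 12–17 days into adipocytes, then exposed to test peptides at 25 μM final for 18–20 h, then 1 h, then 3 h with isoproterenol (1 nM) at 37 °C. Free fatty acids in the medium measured colorimetrically at 540 nm, corrected for untreated background and expressed relative to isoproterenol-only cells.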

3T3-L1 Adipocytes [5] = assay: Free fatty acid levels in cultured mouse 3T3-L1 adipocytes, forskolin stimulated (Example 3); format: cell-based; details: test peptides 25 μM; forskolin 1 μM
Experimental: Mouse 3T3-L1 cells were seeded at 1,000-20,000 cells per well on 96-well, 48-well, or 24-well plates in Pre-adipocyte Medium (Zen-Bio, Durham, N.C.) and grown to confluence at 37° C. in a humidified atmosphere of 5% CO2/95% air. Two days after confluence, cells were placed in Adipocyte Differentiation Medium (Zen-Bio, Durham, N.C.) and cultured for three additional days at 37° C. in a humidified atmosphere of 5% CO2/95% air. The culture media was then replaced with Adipocyte Maintenance Medium (Zen-Bio) and the cells were maintained for an additional 9-14 days at 37° C. in a humidified atmosphere of 5% CO2/95% air with partial medium replacement every other day. Following 12-17 days of differentiation, test peptides were added at a final concentration of 25 μM and incubated for 18-20 hours in Adipocyte Maintenance Medium at 37° C. in a humidified atmosphere of 5% CO2/95%. After 18-20 hours, the media was exchanged with fresh Adipocyte Maintenance Medium containing test peptides and incubated for 1 h at 37° C. in a humidified atmosphere of 5% CO2/95%. After 1 h media was exchanged with Assay Buffer (Zen-Bio) containing forskolin (1 μM) (added to all samples except untreated controls) and test peptides. Cells were incubated for a further 3 hours at 37° C. in a humidified atmosphere of 5% CO2/95%. Free fatty acid concentrations in the media were determined using a Free Fatty Acid Assay Kit (Zen-Bio) according to the manufacturer's instructions using a plate reader (540 nm). Absorbance values were corrected for untreated background and expressed relative to forskolin treated cells. Treatment with forskolin (1 μM) alone was used as the free fatty acid level stimulatory control. The relative standard deviation of the forskolin control was <10%. […] Free fatty acid levels for insulin (100 nM) treatment were <9% of the forskolin control value.

[6] = tested on: Diet Induced Obese (DIO) mice; assay: Body weight, blood glucose and fat mass in Diet Induced Obese mice, 10 days (Example 6); format: in vivo, Male C57BL/6 mice; details: male DIO mice; 10 days twice daily intraperitoneal 15 mg/kg; N = 8; mean
Procedure, shortened: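 Male DIO mice (n=8/group), randomized by blood glucose and body weight, dosed 15 mg/kg/dose once or twice daily s.c. or i.p. for 10 days vs vehicle. Body weight, blood glucose and food intake monitored; fat vs lean mass by quantitative whole-body NMR before and after dosing.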

[7] = Stability in mouse plasma, peptides 10 uM (Example 15); format: in vitro ADME; details: mouse plasma 37° C., peptide 10 uM
Experimental: as §1, with “(10” for “(100”, “13).” for “12).”

Substance	Free Fatty Acid Levels in Human Primary Adipocytes Expressed as a Percent of Isoproterenol Control: Percent of Control Value (Human Primary Adipocytes [1]) [%]	Free Fatty Acid Levels in Human Primary Adipocytes Expressed as a Percent of Forskolin Control: Percent of Control Value (Human Primary Adipocytes [2]) [%]	% Remaining at Each Time Point: 0 min [3] [%]	remaining at 0.25 h, 100 uM [3] [%]	remaining at 0.5 h, 100 uM [3] [%]	remaining at 1 h, 100 uM [3] [%]	remaining at 2 h, 100 uM [3] [%]	remaining at 3 h, 100 uM [3] [%]	Free Fatty Acid Levels in 3T3-L1 Adipocytes Expressed as a Percent of Isoproterenol Control: Percent of Control Value (3T3-L1 Adipocytes [4])	Free Fatty Acid Levels in 3T3-L1 Adipocytes Expressed as a Percent of Forskolin Control: Percent of Control Value (3T3-L1 Adipocytes [5]) [%]	Difference from Vehicle Control: Decrease from Baseline in Blood Glucose [6] [mg/dL]	Difference from Vehicle Control: Decrease from Baseline in Body Weight (%) [6] [%]	Difference from Vehicle Control: Decrease from Baseline in Fat Mass [6] [g]	% Remaining at Each Time Point: 0 min ([7]; 0 min) [%]	remaining at 0.25 h, 10 uM ([7]; pooled mouse plasma, 15 min, read-out: % Remaining at Each Time Point: 15 min) [%]	remaining at 0.5 h, 10 uM ([7]; pooled mouse plasma, 30 min, read-out: % Remaining at Each Time Point: 30 min) [%]	remaining at 1 h, 10 uM ([7]; pooled mouse plasma, 60 min, read-out: % Remaining at Each Time Point: 60 min) [%]	remaining at 2 h, 10 uM ([7]; pooled mouse plasma, 120 min, read-out: % Remaining at Each Time Point: 120 min) [%]	remaining at 3 h, 10 uM ([7]; pooled mouse plasma, 180 min, read-out: % Remaining at Each Time Point: 180 min) [%]
H-MRWQEMGYIFYPRK(Ac)LR-OH [compound 69]	53.0	119	100	33.1	37.7	19.3	5.96	2.11	61.3%	–	–	–	–	–	–	–	–	–	–
H-MRWQEMGYIFYPR-OH [compound 47]	60.5	89.9	100	56.7	49	38.9	23.8	18.3	24.5%	45.3	–	–	–	–	–	–	–	–	–
Ac-YIFYPRKLR-NH2 [compound 58]	164	134	–	–	–	–	–	–	97.3%	–	–	–	–	–	–	–	–	–	–
H-QEMGYIFYPRKLR-OH [compound 40]	122	107	–	–	–	–	–	–	83.1%	96.1	–	–	–	–	–	–	–	–	–
H-WQEMGYIFYPRKLR-OH [compound 39]	22.2	80.8	100	39.5	38.8	54.9	24	16.3	84.3%	114	–	–	–	–	–	–	–	–	–
Ac-RWQEMGYIFYPRKLR-NH2 [compound 52]	126	107	–	–	–	–	–	–	85.6% and 99.5%	88.0	–	–	–	–	–	–	–	–	–
H-MRAQEMGYIFYPRKLR-OH [compound 8]	22.2	107	100	13.2	11.2	10.1	11.7	9.81	–	–	-20.0	−0.24	-0.20	–	–	–	–	–	–
H-MRWQEMGYIFYPRKL-OH [compound 45]	22.2	125	–	–	–	–	–	–	37.9%	–	6.00	−2.01	-0.69	100	66.5	33	7.31	0	0
